{"source": "patent US9770451B2", "about": "“Composition including ATM inhibitor for reducing cellular senescence and use of the composition” (Samsung Electronics Co., Ltd., priority 2014, dated 2017)", "type_in_all_cases": "cell-based, human", "key": {"[1]": {"system": "senescent myoblasts (passage 11)", "assay": "Lipofuscin autofluorescence (FACS)", "conditions": "CP-466722 0.1 μM, 4 weeks", "description": "In addition, the amounts of lipofuscin in the cells cultured as described above were measured. The senescent myoblast (passage 11) that became senescent in the presence of KU-60019 (0.5 μM) were cultured in a CO2 incubator at a temperature of 37° C. for 4 weeks. The medium was replaced by a fresh medium containing KU-60019 (0.5 μM), once every 4 days. Lipofuscin is characterized by having autofluorescence capability, and in this regard, the cultured cells were irradiated with a wavelength of 488 nm by using a FACSCaliber (Beckton Dickinson), and then, measured with radiation emitted from a wavelength of 520 nm. The results were analyzed using Cell Quest 3.2 software (Beckton Dickinson). FIG. 17 is a graph showing lipofuscin measured in the cells that were cultured in the presence of KU-60019.\n(§1) In addition, the amounts of lipofuscin in the cells cultured as described above were measured. […] Lipofuscin is characterized by having autofluorescence capability, and in this regard, the cultured cells were irradiated with a wavelength of 488 nm by using a FACSCaliber (Beckton Dickinson), and then, measured with radiation emitted from a wavelength of 520 nm. The results were analyzed using Cell Quest 3.2 software (Beckton Dickinson). FIG. 23 is a graph showing lipofuscin measured in the cells that were cultured in the presence of CP-466722."}, "[2]": {"system": "progeria senescent fibroblasts (passage 17)", "assay": "Lipofuscin autofluorescence (FACS)", "conditions": "CP-466722 0.1 μM, 4 weeks", "description": "In addition, the amounts of lipofuscin in the cells cultured as described above were measured. The progeria senescent fibroblasts (passage 17) that became senescent in the presence of KU-60019 (0.5 μM) were cultured in a CO2 incubator at a temperature of 37° C. for 4 weeks. The medium was replaced by a fresh medium containing KU-60019 (0.5 μM), once every 4 days. Lipofuscin is characterized by having autofluorescence capability, and in this regard, the cultured cells were irradiated with a wavelength of 488 nm by using a FACSCaliber (Beckton Dickinson), and then, measured with radiation emitted from a wavelength of 520 nm. The results were analyzed using Cell Quest 3.2 software (Beckton Dickinson). FIG. 11 is a graph showing lipofuscin measured in the cells that were cultured in the presence of KU-60019.\nas §1, with “Dickinson).” for “Dickinson). FIG. 23 is a graph showing lipofuscin measured in the cells that were cultured in the presence of CP-466722.”"}, "[3]": {"system": "progeria senescent fibroblasts (passage 17)", "assay": "Mitochondrial membrane potential (JC-1)", "conditions": "CP-466722 0.1 μM", "description": "The mitochondrial activity potential (i.e., mitochondrial membrane potential) was measured according to the protocol of the manufacturer of the MitoProbe™ JC-1 assay kit for flow cytometry (Life technologies: T3168). […] Consequently, mitochondrial depolarization is indicated by a decrease in the red/green fluorescence intensity ratio. The cultured cells were analyzed by flow cytometry by using an FACSCaliber (Beckton Dickinson) using excitation at a wavelength of 488 nm, and band-pass emission light filters at a wavelength of 530/30 nm and 585/42 nm. The results were analyzed using Cell Quest 3.2 software (Beckton Dickinson). FIG. 12 is a graph showing results of measuring mitochondrial activity potential (B) of the cultured cells. […]\nThe mitochondrial activity potential (i.e., mitochondrial membrane potential) was measured according to the protocol of the manufacturer using the MitoProbe™ JC-1 assay kit for flow cytometry (Life technologies: T3168). […] Consequently, mitochondrial depolarization is indicated by a decrease in the red/green fluorescence intensity ratio. The cultured cells were analyzed by flow cytometry by using an FACSCaliber (Beckton Dickinson) using excitation at a wavelength of 488 nm, and band-pass emission light filters at a wavelength of 530/30 nm and 585/42 nm. The results were analyzed using Cell Quest 3.2 software (Beckton Dickinson)."}}, "data": [{"smiles": "COc1cc2ncnc(-n3nc(-c4ccccn4)nc3N)c2cc1OC", "note": "[CP-466722, 2-(6,7-dimethoxyquinazolin-4-yl)-5-(pyridin-2-yl)-2H-1,2,4-triazol-3-amine]", "values": [{"measurement": "amount of lipofuscin vs control", "setting": "[1]", "result": "significantly decreased"}, {"measurement": "amount of lipofuscin vs control", "setting": "[2]", "result": "significantly decreased"}, {"measurement": "mitochondrial activity potential vs control", "setting": "[3]", "result": "significantly increased"}]}]}
